pIC50: −log10 of the molar value. Read-outs that look alike come from different tables or passages of the source.
How the values were obtained:
PEO4 cells = assay: Cell viability assay (SRB) in PEO4 cells; format: cell-based
Method: Cell culture and resistance cell line establishment. IGROV1 cells, U2OS (HTB-96; ATCC), HEK293T (CRL-11268; ATCC) and SKOV3 cells (HTB-77; ATCC) were cultured at 37° C. in DMEM with 10% Fetal Bovine Serum (FBS). PEO1 (10032308; Sigma-Aldrich), PEO4 (10032309; Sigma-Aldrich), PEO14 (10032311; Sigma-Aldrich) and PE023 cells (10032313; Sigma-Aldrich) were cultured at 37° C. in RPMI-1640 with 10% FBS. OV90 (CRL-11732; ATCC) was cultured in medium containing 1:1 MCDB 105 (Sigma) and M199 (Sigma) supplemented with 10% FBS at 37 ° C. All the cells were cultured at in a humidified incubator with 5% CO2 atmosphere. Cisplatin resistant cell lines, including SKOV3 CR, IGROV1 CR and OV90 CR, were generated using an approach similar to that reported in Zhou et al., (2018) Oncogene 37, 3981-3997, the disclosure of which is incorporated herein in its entirety.
Cell viability assay. Cells were seeded at 3,000 cells/well in 96-well plates were treated with drugs, followed by incubation for 48 hours, after which cell viability was detected using Sulforhodamine B (SRB) assay (64). Absorbance at 510 nm was detected using a SpectraMax Reader (Molecular Devices) and analyzed with SoftMax Analysis Software (Molecular Devices). Combinational index (CI) values were calculated using CompuSyn software.

SENP1 = biological target: T1, SENP1 (Homo sapiens, UniProt Q9P0U3); assay: In vitro deSUMOylation assay with recombinant His-JAK2 and GST-SENP1; format: biochemical; design: made in house; host or cells: E. coli BL21 (DE3) for pET28a-JAK2
T1 sequence (Q9P0U3 1-644): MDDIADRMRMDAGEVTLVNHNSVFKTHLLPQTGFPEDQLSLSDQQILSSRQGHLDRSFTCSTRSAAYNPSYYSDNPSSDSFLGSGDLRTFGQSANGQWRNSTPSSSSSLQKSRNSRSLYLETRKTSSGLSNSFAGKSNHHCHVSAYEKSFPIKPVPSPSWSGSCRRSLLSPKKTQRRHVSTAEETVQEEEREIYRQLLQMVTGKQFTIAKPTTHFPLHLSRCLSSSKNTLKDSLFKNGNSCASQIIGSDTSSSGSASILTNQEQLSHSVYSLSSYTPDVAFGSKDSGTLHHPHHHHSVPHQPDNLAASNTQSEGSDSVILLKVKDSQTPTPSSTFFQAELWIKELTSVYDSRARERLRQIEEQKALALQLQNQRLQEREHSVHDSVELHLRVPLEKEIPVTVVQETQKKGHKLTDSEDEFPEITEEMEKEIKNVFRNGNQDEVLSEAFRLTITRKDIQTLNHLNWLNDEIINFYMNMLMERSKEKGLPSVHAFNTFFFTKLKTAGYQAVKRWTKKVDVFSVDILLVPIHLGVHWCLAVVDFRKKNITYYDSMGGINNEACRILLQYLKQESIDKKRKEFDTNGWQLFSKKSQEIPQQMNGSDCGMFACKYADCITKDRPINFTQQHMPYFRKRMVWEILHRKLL
Method: To further determine whether SENP1 can directly deSUMOylate JAK2, in vitro deSUMOylation assays were performed by using purified recombinant His-JAK2 and GST-SENP1 proteins.
In vitro SUMOylation assay. The SUMOylation reactions were performed according to the manufacture's instruction (BML-UW8955-0001; ENZO). Briefly, 200 nM of purified HIS-JAK2 was suspended in reaction buffer (20 μl) containing Mg-ATP, SUMO E1, SUMO E2 and recombinant SUMOs. RanGAP1 (provided in the kit) was used as the substrate for positive control. The reaction was incubated at 37° C. for 60 minutes and terminated by using 20 μl of SDS loading buffer. […] The reactions were then subjected to Western blot to evaluate SUMOylation level.
Protein expression and purification. pET28a-JAK2 and its mutant was transformed in BL21 (DE3) E. coli cells by heat shot method at 42° C. and grown in Luria Broth (LB) at 37° C. E. coli cells were induced with 0.5 mM IPTG to induct protein expression. Cells were harvested by centrifugation at 5,000 g, 4° C. for 15 min and the pellet was resuspended in lysis buffer (20 mM Tris pH 7.9, 500 mM NaCl, 5 mM imidazole, 2 mM DTT and 1× protease inhibitor cocktail). Cells were then sonicated and centrifuged at 14,000 g, 4° C. for 15 min. 1 ml of Ni-NTA was added to the supernatant and incubated at 4° C. with end-to-end mixing for 2 hours and subjected to a column. The Ni-NTA resin was washed with 10 ml wash buffer (20 mM Tris pH 7.9, 250 mM NaCl, 15 mM Imidazole and 0.5 mM DTT) and eluted with 1 ml elution buffer (20 mM Tris pH 7.9, 250 mM NaCl and 1 M imidazole). The elute was then concentrated by using a protein concentrator (Thermo Scientific™ Pierce™) and resuspend in dialysis buffer (50 mM Tris pH 7.9, 50 mM NaCl, 2 mM DTT, and 10% glycerol). The purified protein was stored at −80° C. pGEX-4T1-SENP1 and its mutant were purified using following buffers: lysis buffer (1 mM DTT, and lx protease inhibitor cocktail, 800 mM NaCl, 5 mM EDTA, 50 mM Tris-pH8.0, 0.1% Triton x-100), wash buffer (800 mM NaCl, 5 mM EDTA, 50 mM Tris-pH8.0, 0.1% Triton x-100), elution buffer (40 mM glutathione, 800 mM NaCl, 5 mM EDTA, 50 mM Tris-pH8.0, 0.1% Triton x-100), dialysis buffer (50 mM Tris pH 7.9, 50 mM NaCl, 2 mM DTT, and 10% glycerol).

[1] = recombinant GST-SENP1, 3 hours, read-out: IC50 to inhibit deSUMOylation of His-JAK2 in vitro

Row | SMILES | re-sensitization to cisplatin (PEO4 cells) | synergy with cisplatin (combination index) (PEO4 cells) | pIC50 (SENP1; in vitro, read-out: SENP1 activity was inhibited with IC50) | pIC50 (SENP1; [1]) | fold more potency to inhibit deSUMOylation of His-JAK2 in vitro than Mc (SENP1; UA versus Mc)
1 | CC1(C)CC[C@]2(C(=O)O)CC[C@]3(C)C(=CC[C@@H]4[C@@]5(C)CC[C@H](O[C@@H]6O[C@H](C(=O)O)[C@@H](O)[C@H](O[C@@H]7OC[C@@H](O)[C@H](O)[C@H]7O)[C@H]6O)C(C)(C)[C@@H]5CC[C@]43C)[C@@H]2C1 [Mc, Momordin Ic] | re-sensitized | synergy | 4.81 | 4.70 | –
2 | C[C@H]1[C@H](C)CC[C@]2(C(=O)O)CC[C@]3(C)C(=CC[C@@H]4[C@@]5(C)CC[C@H](O)C(C)(C)[C@@H]5CC[C@]43C)[C@H]12 [UA, ursolic acid] | – | – | – | 8.19 | 3000 fold

Reference: US20230012172A1, “COMPOSITIONS AND METHODS FOR TREATMENT OF PLATINUM-BASED CHEMOTHERAPEUTIC RESISTANT TUMORS” (The George Washington University, priority 2020, published 2023)
